Test: xn = mol fraction of the nth substance listed

C=CC(C)(O)CCC=C(C)C (configuration not stated) + CCCCCC
298.15 K, 101.33 kPa
Conditions	viscosity [mPa·s]
x2 = 0.0412	3.82
x2 = 0.103	3.13
x2 = 0.2546	1.952
x2 = 0.3645	1.418
x2 = 0.4938	0.995
x2 = 0.5828	0.792
x2 = 0.6605	0.637
x2 = 0.7376	0.525
x2 = 0.8069	0.445
x2 = 0.8815	0.372
x2 = 0.9366	0.33
x2 = 0.9766	0.306

CCCCCCCC + CCCCCC
viscosity [mPa·s]
Conditions	x2 = 0.1072	x2 = 0.2073	x2 = 0.2375	x2 = 0.3034	x2 = 0.4038	x2 = 0.5101	x2 = 0.6111	x2 = 0.7056	x2 = 0.805	x2 = 0.9018
294.65 K, 100 kPa	–	–	0.432	–	–	–	–	–	–	–
298.15 K, 101.33 kPa	0.4782	0.4598	–	0.4414	0.4124	0.392	0.3697	0.351	0.3326	0.3172

CCCCCO + CCCCCC
viscosity [mPa·s], 101 kPa
Conditions	298.15 K	313.15 K
x1 = 0.0122	0.302	–
x1 = 0.0218	0.305	–
x1 = 0.0272	0.307	–
x1 = 0.0424	0.312	–
x1 = 0.0642	0.321	–
x1 = 0.0706	0.324	–
x1 = 0.0889	0.333	–
x1 = 0.0978	0.337	–
x1 = 0.124	0.35	–
x1 = 0.1377	0.357	–
x1 = 0.1474	0.362	–
x1 = 0.1677	0.371	0.318
x1 = 0.1838	0.382	–
x1 = 0.1966	0.39	–
x1 = 0.2033	0.395	–
x1 = 0.2353	0.423	0.356
x1 = 0.3342	0.518	0.427
x1 = 0.4494	0.677	0.545
x1 = 0.5434	0.874	0.668
x1 = 0.6407	1.19	0.893
x1 = 0.7344	1.555	1.134
x1 = 0.8437	2.164	1.5
x1 = 0.9129	2.715	1.843

ClC(Cl)=C(Cl)Cl + CCCCCC
303.15 K, 101 kPa
Conditions	viscosity [mPa·s]
x1 = 0.1642	0.358
x1 = 0.2468	0.388
x1 = 0.3358	0.432
x1 = 0.4336	0.471
x1 = 0.4782	0.494
x1 = 0.514	0.515
x1 = 0.6464	0.591
x1 = 0.7236	0.643
x1 = 0.8072	0.697
x1 = 0.9346	0.776

O=[N+]([O-])c1ccccc1 + CCCCCC
Conditions	viscosity [mPa·s]
293.17 K, 101.32 kPa, x1 = 0.183	0.408
293.27 K, 101.32 kPa, x1 = 0.453	0.761
293.65 K, 101.32 kPa, x1 = 0.419	0.697
293.66 K, 101.32 kPa, x1 = 0.732	1.09
293.77 K, 101.32 kPa, x1 = 0.287	0.552
293.77 K, 101.32 kPa, x1 = 0.36	0.552
294.1 K, 101.32 kPa, x1 = 0.559	0.799
294.57 K, 101.32 kPa, x1 = 0.183	0.4
294.75 K, 101.32 kPa, x1 = 0.419	0.651
294.75 K, 101.32 kPa, x1 = 0.629	0.881
294.85 K, 101.32 kPa, x1 = 0.453	0.692
295.17 K, 101.32 kPa, x1 = 0.287	0.54
295.17 K, 101.32 kPa, x1 = 0.36	0.54
295.88 K, 101.32 kPa, x1 = 0.732	1.05
296.05 K, 101.32 kPa, x1 = 0.559	0.775
296.3 K, 101.32 kPa, x1 = 0.183	0.395
296.4 K, 101.32 kPa, x1 = 0.453	0.665
296.45 K, 101.32 kPa, x1 = 0.629	0.861
296.57 K, 101.32 kPa, x1 = 0.287	0.529
296.57 K, 101.32 kPa, x1 = 0.36	0.529
296.85 K, 101.32 kPa, x1 = 0.419	0.621
297.45 K, 101.32 kPa, x1 = 0.732	1.03
298.07 K, 101.32 kPa, x1 = 0.559	0.747
298.15 K, 101.32 kPa, x1 = 0.36	0.516
298.25 K, 101.32 kPa, x1 = 0.287	0.516
298.25 K, 101.32 kPa, x1 = 0.629	0.836
298.35 K, 101.32 kPa, x1 = 0.419	0.605
298.55 K, 101.32 kPa, x1 = 0.453	0.645
303.15 K, 101 kPa, x2 = 0.072	1.319
303.15 K, 101 kPa, x2 = 0.148	1.016
303.15 K, 101 kPa, x2 = 0.246	0.8236
303.15 K, 101 kPa, x2 = 0.318	0.6679
303.15 K, 101 kPa, x2 = 0.391	0.5916
303.15 K, 101 kPa, x2 = 0.51	0.4845
303.15 K, 101 kPa, x2 = 0.618	0.4107
303.15 K, 101 kPa, x2 = 0.735	0.3659
303.15 K, 101 kPa, x2 = 0.862	0.3216

c1ccccc1 + CCCCCC
Conditions	viscosity [mPa·s]
293.15 K, 101.33 kPa, x1 = 0.1713	0.327
293.15 K, 101.33 kPa, x1 = 0.3148	0.345
293.15 K, 101.33 kPa, x1 = 0.4632	0.371
293.15 K, 101.33 kPa, x1 = 0.5799	0.406
293.15 K, 101.33 kPa, x1 = 0.7266	0.454
293.15 K, 101.33 kPa, x1 = 0.8082	0.494
293.15 K, 101.33 kPa, x1 = 0.9173	0.57
298 K, 101.33 kPa, x1 = 0.1026	0.3104
298 K, 101.33 kPa, x1 = 0.2013	0.3191
298 K, 101.33 kPa, x1 = 0.2817	0.3276
298 K, 101.33 kPa, x1 = 0.4385	0.3516
298 K, 101.33 kPa, x1 = 0.5967	0.3871
298 K, 101.33 kPa, x1 = 0.7149	0.4256
298 K, 101.33 kPa, x1 = 0.794	0.46
298 K, 101.33 kPa, x1 = 0.8993	0.5212
298.1 K, 101 kPa, x2 = 0.2	0.469
298.1 K, 101 kPa, x2 = 0.4	0.4
298.1 K, 101 kPa, x2 = 0.5	0.377
298.1 K, 101 kPa, x2 = 0.6	0.359
298.1 K, 101 kPa, x2 = 0.8	0.334
298.15 K, 101 kPa, x2 = 0.07	0.556
298.15 K, 101 kPa, x2 = 0.182	0.5
298.15 K, 101 kPa, x2 = 0.265	0.489
298.15 K, 101 kPa, x2 = 0.405	0.429
298.15 K, 101 kPa, x2 = 0.563	0.4
298.15 K, 101.33 kPa, x1 = 0.0651	0.2983
298.15 K, 101.33 kPa, x1 = 0.1218	0.3034
298.15 K, 101.33 kPa, x1 = 0.1281	0.3134
298.15 K, 101.33 kPa, x1 = 0.2665	0.327
298.15 K, 101.33 kPa, x1 = 0.2763	0.3184
298.15 K, 101.33 kPa, x1 = 0.405	0.3471
298.15 K, 101.33 kPa, x1 = 0.4144	0.339
298.15 K, 101.33 kPa, x1 = 0.5704	0.3822
298.15 K, 101.33 kPa, x1 = 0.5822	0.3759
298.15 K, 101.33 kPa, x1 = 0.7092	0.4165
298.15 K, 101.33 kPa, x1 = 0.7216	0.4254
298.15 K, 101.33 kPa, x1 = 0.821	0.4673
298.15 K, 101.33 kPa, x1 = 0.8811	0.5139
298.15 K, 101.33 kPa, x1 = 0.9055	0.5208
298.15 K, 101.33 kPa, x2 = 0.0488	0.55
298.15 K, 101.33 kPa, x2 = 0.05393	0.5662
298.15 K, 101.33 kPa, x2 = 0.1122	0.5225
298.15 K, 101.33 kPa, x2 = 0.1676	0.466
298.15 K, 101.33 kPa, x2 = 0.2079	0.472
298.15 K, 101.33 kPa, x2 = 0.2486	0.434
298.15 K, 101.33 kPa, x2 = 0.3095	0.4294
298.15 K, 101.33 kPa, x2 = 0.3321	0.397
298.15 K, 101.33 kPa, x2 = 0.3638	0.386
298.15 K, 101.33 kPa, x2 = 0.4168	0.373
298.15 K, 101.33 kPa, x2 = 0.4197	0.3921
298.15 K, 101.33 kPa, x2 = 0.4682	0.358
298.15 K, 101.33 kPa, x2 = 0.5004	0.3712
298.15 K, 101.33 kPa, x2 = 0.5206	0.347
298.15 K, 101.33 kPa, x2 = 0.5934	0.3533
298.15 K, 101.33 kPa, x2 = 0.626	0.328
298.15 K, 101.33 kPa, x2 = 0.6857	0.3394
298.15 K, 101.33 kPa, x2 = 0.7434	0.312
298.15 K, 101.33 kPa, x2 = 0.7913	0.3268
298.15 K, 101.33 kPa, x2 = 0.8753	0.299
298.15 K, 101.33 kPa, x2 = 0.8834	0.3202
298.15 K, 101.33 kPa, x2 = 0.9498	0.294
308.15 K, 101 kPa, x2 = 0.07	0.486
308.15 K, 101 kPa, x2 = 0.182	0.441
308.15 K, 101 kPa, x2 = 0.265	0.415
308.15 K, 101 kPa, x2 = 0.405	0.384
308.15 K, 101 kPa, x2 = 0.563	0.361
323.15 K, 101 kPa, x2 = 0.07	0.407
323.15 K, 101 kPa, x2 = 0.182	0.374
323.15 K, 101 kPa, x2 = 0.265	0.356
323.15 K, 101 kPa, x2 = 0.405	0.334
323.15 K, 101 kPa, x2 = 0.563	0.32
